Reference: patent US11815435B2, “Beta glucan immunopharmacodynamics” (HiberCell, Inc., priority 2017, dated 2023)

Experiments:
Type in all cases: in vivo, human
[1] = system: anti-β-glucan antibody (IgG ABA); assay: Anti-β-glucan antibody (ABA) levels in serum by ELISA after IV PGG, Phase I healthy donor trial; details: for ABA level changes: single dose PGG IV
Procedure: (§1) IPD changes induced by yeast soluble β-glucan were evaluated in a Phase I healthy donor trial, which included three cohorts of 12 healthy human volunteers aged 18-65 years. In Cohort 1, subjects were administered a single dose of 4 mg/kg yeast soluble β-glucan by IV infusion over 2-3 hours. In Cohort 2, subjects were administered 4 mg/kg PGG by IV infusion over 2-3 hours once weekly for 3 weeks. Half of the subjects received premedications which included low dose corticosteroids (4 mg of dexamethasone, PO) and low-dose H1 antagonists (50 mg diphenhydramine.
In Cohort 3, subjects received either 2 mg/kg PGG or 4 mg/kg PGG by IV infusion over 1-2 hours. The subjects were administered either dose of PGG once weekly for 2 weeks, then given a 2 week wash out (no PGG) and finally received one more dose of PGG (week 5). Adverse events and complete blood counts were evaluated. In addition, whole blood and serum was evaluated for the following at various time points post-infusion: PGG binding to immune cells (monocytes, neutrophils, B-cells, DC subsets), complement activation (C5a and Sc5b9), serum cytokine/chemokine levels, IgG ABA levels, flow cytometry of immune cells, circulating immune complex formation and Quantigene analysis of transcriptional profile. Table 1 lists each subject's pre-dose IgG ABA levels, PGG dose and whether they received premedications.
(§2) Subjects were stratified/classified into subgroups based on pre-infusion ABA levels. ABA cutoff levels were selected based on prior studies and are only exemplary. Classification may include only 2 subgroups based on an IgG ABA cutoff level of 15 μg/ml, 20 μg/ml, 25, μg/ml, 30 μg/ml, 35 μg/ml, 40 μg/ml, 45 μg/ml or 50 μg/ml. Classification may also include 3, 4, 5 or more subgroups with each subgroup corresponding to a specific IgG ABA level range. For example, a 3 subgroup classification may include a Low-ABA subgroup encompassing ABA level ranges of <15 μg/ml, <20 μg/ml, <25 μg/ml or <30 μg/ml, a Mid-ABA subgroup encompassing a range having a low end ABA level of 20 μg/ml, 25 μg/ml, 30 μg/ml, 35 μg/ml, 40 μg/ml or 45 μg/ml and a high end ABA level of 30 μg/ml, 35 μg/ml, 40 μg/ml, 45 μg/ml, 50 μg/ml or 55 μg/ml, and a High-ABA subgroup encompassing ABA level ranges of >35 μg/ml, >40 μg/ml, >45 μg/ml, >50 μg/ml, >55 μg/ml, >60 μg/ml, >65 μg/ml or >70 μg/ml. As discussed in International Published Application No. WO2015084732A1, various ABA cutoff levels may be used for reasons such as differences in soluble β-glucan immunotherapy treatments and preferences regarding inclusiveness and exclusiveness of subgroups. Here, subjects whose ABA levels were less than 20 μg/ml were considered Low-ABA. Subjects with ABA levels between 20 μg/ml and 50 μg/ml were considered Mid-ABA. Subjects with ABA levels greater than 50 μg/ml were High-ABA. Serum and cellular IPD markers were analyzed pre-infusion, 15 minutes, 30 minutes and 1 hour post-infusion, end of infusion (EOI) and 1 hour, 2 hours, 3 hours, 4 hours, 24 hours, 48 hours and 168 hours after EOI.
ABA levels were then followed in subjects through single and multiple doses of PGG. ABA levels were measured in serum by ELISA, and subjects were placed in subgroups based on pre-infusion ABA levels: Low-ABA (<20 μg/mL), Mid-ABA (20-50 μg/mL) or High-ABA (>50 μg/mL). Whole blood or serum was drawn from the subjects at various time points before and after a single dose (Cohort 1) or multiple weekly doses (Cohorts 2 and 3) of PGG infusion. […] In some cases, such as shown for subject 67 in the Low-ABA subgroup, the increase may lead to a change in subgroup (Low-ABA to Mid-ABA).
Increasing the time between soluble β-glucan doses may not only promote repeated acute IPD responses but also enhance acute IPD responses, which may increase the effectiveness of soluble β-glucan therapy. […]

[2] = system: circulating immune complexes (CIC); assay: Circulating immune complex (CIC) formation in serum by ELISA after IV PGG; details: single dose PGG IV, at EOI
Procedure: as §1
as §2, with “Here, subjects whose ABA levels were less than 20 μg/ml were considered Low-ABA. Subjects with ABA levels between 20 μg/ml and 50 μg/ml were considered Mid-ABA. Subjects with ABA levels greater than 50 μg/ml were High-ABA.” left out
Total CIC formation was measured in serum by ELISA (Quidel).

[3] = system: complement activation products, C5a and SC5b-9; assay: Complement activation in plasma by ELISA after IV PGG; details: healthy subjects, single dose PGG IV
Procedure: as §1
Subjects were stratified/classified into subgroups based on pre-infusion ABA levels. ABA cutoff levels were selected based on prior studies and are only exemplary. Classification may include only 2 subgroups based on an IgG ABA cutoff level of 15 μg/ml, 20 μg/ml, 25, μg/ml, 30 μg/ml, 35 μg/ml, 40 μg/ml, 45 μg/ml or 50 μg/ml. […] Serum and cellular IPD markers were analyzed pre-infusion, 15 minutes, 30 minutes and 1 hour post-infusion, end of infusion (EOI) and 1 hour, 2 hours, 3 hours, 4 hours, 24 hours, 48 hours and 168 hours after EOI.
Levels of complement activity, measured by […] (Quidel) in plasma, were determined by measuring complement activation products, C5a and SC5b-9. Levels were measured week 1 pre-infusion, 15 minutes, 30 minutes and 1 hour post-infusion, EOL 1 hour EOI and week 2 pre-infusion. […]

[4] = system: innate immune activation marker genes; assay: Gene expression in whole blood (Quantigeneplex); details: 3 hr post-infusion vs. pre-dose, no premedications
Text: Whole blood was collected in PaxGene blood collection tubes (BD Biosciences) at various time points pre- and post-PGG administration. RNA was isolated and assayed by Quantigeneplex (Affymetrix) and the relative fold changes were log 2 transformed. Data presented are from subjects treated with PGG without premedications.

[5] = system: SC5b-9; assay: Example 1: complement activation (SC5b-9) in the cancer subject; details: cancer subject after conversion to High-ABA subgroup; IMPRIME PGG 4 mg/kg once every 3 weeks
[6] = system: MIP-1b, IP-10, IL-1 RA and I-TAC; assay: Example 1: cytokine levels in the cancer subject
Procedure: Cytokine levels were also measured during the immunotherapy treatment. […] In addition, less frequent dosing is more convenient and economical for the subject.

β(1,6)-[poly-(1,3)-D-glucopyranosyl]-poly-β(1,3)-D-glucopyranose [PGG]
ABA levels over the 5 week course of treatment ([1]; Cohort 3: weeks 1, 2, 2 week wash out, week 5 dose, High-, Mid-, Low-ABA subjects): Increases in ABA were seen in all subjects with the largest increase occurring after administration of the week 5 dose
ABA subgroup classification ([1]; Cohort 3 Low-ABA subject, after the last (week 5) dose): converted to the Mid-ABA classification
ABA level changes ([1]; High-ABA (>50 μg/ml) healthy subjects): dropped during infusion with PGG and then rebounded about 48 hours EOI
ABA level changes ([1]; Low-ABA (<20 μg/ml) healthy subjects): essentially unaffected
ABA level changes ([1]; Mid-ABA (20-50 μg/ml) healthy subjects): increased at 48 hours after the EOI
ABA levels after multiple doses ([1]; multiple weekly doses of PGG (Cohorts 2 and 3)): can increase ABA levels for some subjects
increase in CIC ([2]; High-ABA subjects): the highest increase in CIC
increase in CIC ([2]; Low-ABA subjects): little increase in CIC
increase in CIC ([2]; Mid-ABA subjects): a greater increase in CIC
increase in complement activation (SC5b-9 levels) [3]: correlated with ABA levels with levels peaking at EOI
expression of innate immune activation marker genes [4]: consistently increased in subjects with higher levels of ABA
complement activation (SC5b-9 levels) [5]: Acute increases in complement activation
cytokine levels (MIP-1b, IP-10, IL-1 RA, I-TAC) ([6]; cancer subject after conversion to High-ABA group, IMPRIME PGG 4 mg/kg once every 3 weeks): acute IPD responses were seen
recurrence of acute IPD responses ([6]; cancer subject, soluble β-glucan administered once every 3 weeks (SC5b-9 and cytokines)): robust, acute IPD responses occurred with each administration
